According to US5344930A, “Fluorine and phosphorous-containing amphiphilic molecules with surfactant properties” (Alliance Pharmaceutical Corp., priority 1993, dated 1994):
Read-outs that look alike come from different tables or passages of the source.

Experiments:
[1] = Growth and viability of lymphoblastoid cell cultures of the Namalva strain; type: cell-based; details: human, namalva lymphoblastoid cells, control = 100%; for activity: read-out: Cell Culture Growth %; for viability: read-out: Cell Culture Viability %
mice = assay: Injection into the tail vein of mice (deaths, growth); type: in vivo; details: 500 μl in NaCl 9%, 10 mice of 20-25g, observed for 35 days
[2] = Fluorocarbon (F-decalin) emulsions: average particle size and stability; type: physicochemical; details: for increase in average particle size: perfluorodecalin (50% w/v) emulsions, 2 or 3% w/v sole surfactant
Protocol: ^a Emulsions prepared by microfluidization.
Additional stable perfluorodecalin (50% w/v) emulsions based on the perfluoroalkylated phosphatidylcholines 11 or 12 (2 or 3% w/v) as the sole surfactant have been prepared by sonication.
^a Emulsions prepared by sonication
^b The emulsions are stored at 25° C.
^c The emulsions are stored at 50° C.
^a All the emulsions are prepared by microfluidization and stored at
The new perfluoroalkylated surfactants were solubilized or dispersed into water. Then the fluorocarbon was added under agitation. Any emulsification method like sonication can be used but mechanical procedures such as microfluidization or high pressure homogenization are preferred. The emulsion obtained can be used as an O2 carrier. The significant stabilization effect which can be obtained by incorporating the new F-alkyl surfactants is illustrated for various emulsion formulations (see Tables above).

[3] = Liposome preparation: average size and stability; type: physicochemical
Protocol: 1) Lipid 12 dissolved in chloroform was placed in a round bottom flask and the solvent evaporated by rotation under argon to produce a uniform film of dry lipid. Residual traces of chloroform were removed under vacuum (10^-3 mm Hg, 3 h). Dried lipid is suspended in HEPES buffer (10^-2 M,pH 7), vortexed for 5 ran., then probe sonicated (dial 7 on a Branson B30 sonifier, Power 4, Pulse 50, 3 mn.) 15° C. above phase transition temperature, to produce a clear bluish dispersion. Final concentration of 12 is 3% (w/v). Average size measurements were realised by light scattering on a Coulter Model N4SD, sub-Micron Particle Analyser: 0,12 μm.
2) Same dispersion procedure applied to powder lipid 12 produced a clear dispersion with an average particle size 0,12 μm.
Liposomes were observed by electronic microscopy after freeze-etching as unilamellar and multilamellar vesicles.

[4] = Surface tension of aqueous solutions at 20° C.; type: physicochemical; details: (+0.3)
Protocol: (§1) The strong surface activity of the compounds encompassed by this invention is illustrated in particular by the strong lowering of the surface tension (γs) they cause when added to water, as shown by the examples of surface tensions (measured at 20° C. and expressed in milliNewton.meter^-1) and calculated spreading coefficients collected in the Table below: […]

[5] = Interfacial tension and spreading coefficient between water and perfluorodecalin; type: physicochemical; details: for γi (interfacial tension between water and perfluorodecalin): (+0.3), 56 mNm^-1 in the absence of surfactant; for Spreading Coef.: -56 mNm^-1 in the absence of surfactant
Protocol: as §1

[6] = Table III, 1% compound + 2% EYP (Ref.: 3% EYP), 20% w/v F-decalin, 1 month at 25° C.
[7] = Table III, 1% compound + 2% EYP (Ref.: 3% EYP), 20% w/v F-decalin, sonication
[8] = Table III, 1% compound + 2% EYP (Ref.: 3% EYP), 20% w/v F-decalin, sonication, stored at 25° C.
[9] = Table I, 3% compound (Ref.: 3% EYP), 50% w/v F-decalin, 1 month at 50° C.
[10] = Table I, 3% compound (Ref.: 3% EYP), 50% w/v F-decalin, microfluidization
[11] = Table IV, 0.66% compound + 1.33% EYP, 100% w/v F-decalin, stored at 50° C.

| Compound | activity ([1]; 1 g/l in 9% of NaCl) | viability ([1]; 1 g/l in 9% of NaCl) | concentration of which injection caused no deaths and did not perturb the normal growth (mice) | γs (surface tension) ([4]; 1 g/l in water) | γi (interfacial tension between water and perfluorodecalin) ([5]; 1 g/l in water) | Spreading Coef. ([5]; 1 g/l in water) | Relative Increase % (particle size) [2, 6] | Average Particle Size After Preparation [2, 7] | Average Particle Size After 1 month [2, 8] | also measured |
| --- | --- | --- | --- | --- | --- | --- | --- | --- | --- | --- |
| C[N+](C)(C)CCOP(=O)([O-])OCC(COC(=O)CCCCCCCCCCC(F)(F)C(F)(F)C(F)(F)C(F)(F)C(F)(F)C(F)(F)F)OC(=O)CCCCCCCCCCC(F)(F)C(F)(F)C(F)(F)C(F)(F)C(F)(F)C(F)(F)F (racemic) [Compound 10, 1,2-di[(11-F-hexyl)undecaoyl] 3-[2'-(N,N,N-trimethylamino)ethyl] phosphoryl rac-glycerol] | 99% | 95% | 30000 µg/mL |  |  |  |  |  |  |  |
| C[N+](C)(C)CCOP(=O)([O-])OCC(COC(=O)CCCCCCCCCCC(F)(F)C(F)(F)C(F)(F)C(F)(F)F)OC(=O)CCCCCCCCCCC(F)(F)C(F)(F)C(F)(F)C(F)(F)F (racemic) [Compound 11, 1,2-di [(11-F-butyl)undecaoyl] 3-[2'-(N,N,N-trimethylamino)ethylphosphoryl] rac-glycerol] | 60% | 83% | 100000 µg/mL |  |  |  |  |  |  | Relative Increase % (particle size) ([2]; Table III, 0.66% compound + 1.33% EYP (Ref.: 2% EYP), 50% w/v F-decalin, 1 month at 50° C.): 35%; Average Particle Size After Preparation ([2]; Table III, 0.66% compound + 1.33% EYP (Ref.: 2% EYP), 50% w/v F-decalin, sonication): 0.37 μm; Average Particle Size After 1 month ([2]; Table III, 0.66% compound + 1.33% EYP (Ref.: 2% EYP), 50% w/v F-decalin, sonication, stored at 50° C.): 0.50 μm; increase in average particle size ([2]; sonication): 10% |
| C[N+](C)(C)CCOP(=O)([O-])OCC(COC(=O)CCCCC(F)(F)C(F)(F)C(F)(F)C(F)(F)C(F)(F)C(F)(F)F)OC(=O)CCCCC(F)(F)C(F)(F)C(F)(F)C(F)(F)C(F)(F)C(F)(F)F (racemic) [Compound 12, 1,2-di [(11-F-hexyl)pentanoyl] 3-[2' -(N,N,N-trimethylamino)ethylphosphoryl] rac-glycerol] |  |  | 100000 µg/mL |  |  |  |  |  |  | Average size of liposomes ([3]; 3% (w/v), from dried lipid film, HEPES buffer pH 7, probe sonicated, light scattering): 0,12 μm; average particle size of dispersion ([3]; same dispersion procedure applied to powder lipid): 0,12 μm; increase in average particle size ([2]; sonication): 10% |
| C[N+](C)(C)CCOP(=O)([O-])OCC(COCCCCCCCCCCCC(F)(F)C(F)(F)C(F)(F)C(F)(F)F)OCCCCCCCCCCCC(F)(F)C(F)(F)C(F)(F)C(F)(F)F (racemic) [Compound 13, 1,2-di [(11-F-butyl)undecyl] 3-[2'-(N,N,N-trimethylamino)ethylphosphoryl] rac-glycerol] | 55% | 91% | 60000 µg/mL |  |  |  |  |  |  |  |
| COCCOP(=O)(OCCOC)OCC(COC(=O)CCCCCCCCCCC(F)(F)C(F)(F)C(F)(F)C(F)(F)C(F)(F)C(F)(F)F)OC(=O)CCCCCCCCCCC(F)(F)C(F)(F)C(F)(F)C(F)(F)C(F)(F)C(F)(F)F (racemic) [Compound 14, [1',2'-di [(11-F-hexyl)undecanoyl]rac-glyceryl] [di (2'-methoxy-ethyl)] phosphate] |  |  | 10000 µg/mL |  |  |  |  |  |  |  |
| O=P(OCCC(F)(F)C(F)(F)C(F)(F)C(F)(F)C(F)(F)C(F)(F)F)(N1CCOCC1)N1CCOCC1 [Compound 1, [2-(F-hexyl)ethyl] dimorpholinophosphoramidate] |  |  |  | 22.5 mNm^-1 | 2.0 mNm^-1 | -1.6 mNm^-1 |  |  |  |  |
| O=P(OCCC(F)(F)C(F)(F)C(F)(F)C(F)(F)C(F)(F)C(F)(F)C(F)(F)C(F)(F)F)(N1CCOCC1)N1CCOCC1 [Compound 2, [2-(F-octyl)ethyl] dimorpholinohosphoramidate] | 67% | 106% |  | 22.5 mNm^-1 | 1.0 mNm^-1 | -0.6 mNm^-1 |  |  |  |  |
| O=P(OCCCCCCCCCCCC(F)(F)C(F)(F)C(F)(F)C(F)(F)C(F)(F)C(F)(F)F)(N1CCOCC1)N1CCOCC1 [Compound 3, [11-(F-hexyl)undecyl] dimorpholinohosphoramidate] |  |  |  |  |  |  | 50% | 0.26 μm | 0.39 μm | γs (surface tension) ([4]; 0.1 g/l in water): 24.4 mNm^-1; γi (interfacial tension between water and perfluorodecalin) ([5]; 0.1 g/l in water): 7.5 mNm^-1; Spreading Coef. ([5]; 0.1 g/l in water): -0.9 mNm^-1 |
| O=P(OCCCCCCCCCCCC(F)(F)C(F)(F)C(F)(F)C(F)(F)C(F)(F)C(F)(F)C(F)(F)C(F)(F)F)(N1CCOCC1)N1CCOCC1 [Compound 4, [11-(F-octyl)undecyl] dimorpholinohosphoramidate] |  |  |  |  |  |  | 50% | 0.26 μm | 0.39 μm | γs (surface tension) ([4]; 0.1 g/l in water): 22.5 mNm^-1; γi (interfacial tension between water and perfluorodecalin) ([5]; 0.1 g/l in water): 1.4 mNm^-1; Spreading Coef. ([5]; 0.1 g/l in water): -1.0 mNm^-1 |
| C[N+](C)(C)CCOP(=O)([O-])OCCC(F)(F)C(F)(F)C(F)(F)C(F)(F)C(F)(F)C(F)(F)C(F)(F)C(F)(F)F [Compound 5, [2-(F-octyl)ethyl] [2'-N,N,N trimethylamino ethyl] phosphate] |  |  | 1000 µg/mL | 23.0 mNm^-1 | 4.5 mNm^-1 | -4.6 mNm^-1 | 100% | 0.15 μm | 0.29 μm | activity ([1]; 10 g/l in 9% of NaCl): 96%; viability ([1]; 10 g/l in 9% of NaCl): 102%; emulsion stability (in words) ([2]; 50% w/v F-decalin emulsions, 1% surfactant where stated): remain stable at 50 °C for at least one month; Average Particle Size After Preparation ([2]; Table I, 1% compound (Ref.: 1% EYP), 50% w/v F-decalin, microfluidization): 0.48 μm; Relative Increase % (particle size) ([2]; Table I, 1% compound, 50% w/v F-decalin, 1 month at 50° C.): 14%; Average Particle Size After 1 month at 50° C. ([2]; Table I, 1% compound, 50% w/v F-decalin, microfluidization): 0.55 μm; Relative Increase % (particle size) [2, 9]: 50%; Average Particle Size After 1 month at 50° C. [2, 10]: 0.30 μm; Average Particle Size After Preparation [2, 10]: 0.20 μm; Average Particle Size After Preparation ([2]; Table IV, 0.66% compound + 1.33% EYP (Ref.: 2% EYP), 100% w/v F-decalin, microfluidization): 0.6 μm; Average Particle size After 3 months ([2]; Table IV, 0.66% compound + 1.33% EYP (Ref.: 2% EYP), 100% w/v F-decalin, stored at 50° C.): 1.1 μm; Average Particle size After 8 months [2, 11]: 1.35 μm; Relative Increase % (particle size) [2, 11]: 125% |
| C[N+](C)(C)CCOP(=O)([O-])OCCCCCCCCCCCC(F)(F)C(F)(F)C(F)(F)C(F)(F)C(F)(F)C(F)(F)C(F)(F)C(F)(F)F [Compound 6, [11-(F-octyl)undecyl] [2'-N,N,N trimethylamino ethyl] phosphate] |  |  | 1000 µg/mL | 30.0 mNm^-1 | 9.4 mNm^-1 | -16.5 mNm^-1 | 110% | 0.17 μm | 0.36 μm | Relative Increase % (particle size) [2, 9]: 44%; Average Particle Size After 1 month at 50° C. [2, 10]: 0.36 μm; Average Particle Size After Preparation [2, 10]: 0.25 μm |
